Data published in ChEMBL document CHEMBL1201862, “PubChem BioAssay data set” (2004).
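These data come from cells grown in 96-well plates and exposed to compound for 48 hours at five concentrations. GI50 marks 50% less growth.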 Activity calls are given as the source filed them. Rule as the data show it: active = GI50 up to about 1.1 µM and inactive = higher.

Legend:
Assay in all cases: NCI tumour cell line growth inhibition, 48 h
ACHN = tested on: ACHN
CCRF-CEM = tested on: CCRF-CEM
COLO 205 = tested on: COLO 205
HCC 2998 = tested on: HCC 2998
HT-29 = tested on: HT-29
IGROV-1 = tested on: IGROV-1
K562 = tested on: K562
LOX IMVI = tested on: LOX IMVI
MDA-N = tested on: MDA-N
OVCAR-4 = tested on: OVCAR-4
OVCAR-5 = tested on: OVCAR-5
OVCAR-8 = tested on: OVCAR-8
RPMI-8226 = tested on: RPMI-8226
RXF 393 = tested on: RXF 393
SK-MEL-28 = tested on: SK-MEL-28
SK-OV-3 = tested on: SK-OV-3
SNB-19 = tested on: SNB-19
SR = tested on: SR
T47D = tested on: T47D
SF-539 = tested on: SF-539

Measured: GI50

c1cc(C2N3CCCN2CC3)ccn1 (configuration not stated)
inactive: ACHN > 100 µM | CCRF-CEM 33.4 µM | COLO 205 > 100 µM | HCC 2998 > 100 µM | HT-29 > 100 µM | IGROV-1 96.6 µM | K562 28.2 µM | LOX IMVI 57.9 µM | MDA-N 35.1 µM | OVCAR-4 86.7 µM | OVCAR-5 > 100 µM | OVCAR-8 53.8 µM | RPMI-8226 24.1 µM | RXF 393 > 100 µM | SK-MEL-28 > 100 µM | SK-OV-3 > 100 µM | SNB-19 > 100 µM | SR 49.9 µM | T47D > 100 µM

N#CC12C(=O)N=C(N)C1(C#N)C(c1ccco1)NC1=C2CCCC1 (configuration not stated)
inactive: ACHN > 100 µM | CCRF-CEM > 100 µM | COLO 205 > 100 µM | HCC 2998 > 100 µM | HT-29 > 100 µM | IGROV-1 > 100 µM | LOX IMVI > 100 µM | MDA-N > 100 µM | OVCAR-4 > 100 µM | OVCAR-5 > 100 µM | OVCAR-8 > 100 µM | RPMI-8226 > 100 µM | RXF 393 > 100 µM | SK-MEL-28 > 100 µM | SK-OV-3 > 100 µM | SNB-19 > 100 µM | SR > 100 µM | T47D > 100 µM

Cc1cc(N(CCC#N)CCC#N)ccc1C(/N=N/c1ccccc1)=N\NC(=O)c1cc(Cl)ccc1O
inactive: ACHN 15.8 µM | CCRF-CEM 16.6 µM | COLO 205 19.7 µM | HCC 2998 15.8 µM | HT-29 15.5 µM | IGROV-1 26.2 µM | K562 22.4 µM | MDA-N 32.6 µM | OVCAR-4 20.7 µM | OVCAR-5 > 10 µM | OVCAR-8 21.5 µM | RPMI-8226 64.7 µM | RXF 393 23.3 µM | SF-539 20.5 µM | SK-OV-3 71.4 µM | SNB-19 49 µM | SR 13.5 µM | T47D 11.4 µM

CCNC(C)(C)C(SS)c1ccc(Br)cc1 (configuration not stated)
inactive: ACHN > 100 µM | CCRF-CEM 20.3 µM | COLO 205 62.1 µM | HT-29 25.8 µM | IGROV-1 > 100 µM | K562 36.1 µM | LOX IMVI 26.1 µM | MDA-N 45.6 µM | OVCAR-4 44.5 µM | OVCAR-5 > 100 µM | OVCAR-8 > 100 µM | RPMI-8226 27.8 µM | RXF 393 46 µM | SF-539 38 µM | SK-MEL-28 > 100 µM | SK-OV-3 > 100 µM | SNB-19 > 100 µM | SR 30.4 µM | T47D 24 µM

CCN(CC)CCCNC(=O)c1cc(-c2nccn2C)nc2ccccc12
inactive: ACHN > 100 µM | CCRF-CEM > 100 µM | COLO 205 > 100 µM | HCC 2998 > 100 µM | HT-29 > 100 µM | IGROV-1 > 100 µM | K562 > 100 µM | LOX IMVI > 100 µM | MDA-N > 100 µM | OVCAR-4 61.2 µM | OVCAR-5 > 100 µM | OVCAR-8 > 100 µM | RPMI-8226 > 100 µM | RXF 393 > 100 µM | SF-539 > 100 µM | SNB-19 > 100 µM | SR > 10 µM | T47D > 100 µM

Cc1sc(Nc2ccccc2[N+](=O)[O-])c(C#N)c1C
inactive: ACHN 31 µM | CCRF-CEM > 100 µM | COLO 205 > 100 µM | HCC 2998 > 100 µM | K562 > 100 µM | MDA-N > 100 µM | OVCAR-4 43.6 µM | OVCAR-5 23 µM | OVCAR-8 27.7 µM | RPMI-8226 > 100 µM | RXF 393 5.12 µM | SF-539 21.5 µM | SK-MEL-28 99.3 µM | SK-OV-3 66.1 µM | SNB-19 26.2 µM | SR > 100 µM | T47D 28.4 µM

COc1cc(S(=O)(=O)Nc2nc(-c3ccc(N4C(=O)/C(=C/C=C/c5ccccc5)N=C4c4ccccc4)cc3)cs2)ccc1Cl
inactive: ACHN > 100 µM | CCRF-CEM 58.7 µM | COLO 205 > 100 µM | HT-29 > 100 µM | IGROV-1 37 µM | K562 72.3 µM | LOX IMVI 53.5 µM | MDA-N > 100 µM | OVCAR-4 > 100 µM | OVCAR-5 > 100 µM | OVCAR-8 > 100 µM | RXF 393 37.6 µM | SF-539 > 100 µM | SK-MEL-28 81.3 µM | SK-OV-3 > 100 µM | SNB-19 99.3 µM | SR 58.3 µM | T47D 48.1 µM
